Measurements: patent US6875759B1, “Substituted guanidines and the use thereof” (Kadmus Pharmaceuticals, priority 1999, dated 2005)
Read-outs that look alike come from different tables or passages of the source.

Experiments:
[1] = system: breast cancer cell line HS578T; assay: In vitro cytotoxicity, MTS assay, breast cancer cells; assay type: cell-based, human; settings: 7 days exposure, dose causing death to 50% of cells, read-out: Cell Survival ED 50 Breast
Procedure: (§1) In these experiments, cells were seeded at 400 cells per well 24 hours prior to addition of the test compound. Cells were grown at 37° C. in a humidified atmosphere of 95% air, 5% CO2 for 7 days with daily media changes. Cytotoxicity was assessed using the CellTiter 96 Aqueous Proliferation Assay (Promega, Madison, Wis.).

[2] = system: hormone-independent prostate cancer cell line DU145; assay: In vitro cytotoxicity, MTS (CellTiter 96 Aqueous Proliferation Assay), prostate cancer cells; assay type: cell-based, human; settings: 7 days exposure, MTS, dose causing death to 50% of cells, read-out: Cell Survival ED 50 Prostate
Procedure: FIG. 1 is a graph which compares the effects of the compound of Example 8 on normal human endothelial cells (AH-9) and human prostate cancer cells (DU145). Cells were exposed to the compound for seven days at the concentrations indicated. Cytotoxicity was assessed using the MTS assay.
as §1
In a separate experiment (FIG. 1), normal human endothelial cells (AH-9) and human prostate cancer cells (DU145) were exposed to increasing concentrations of the compound of Example 8 for seven days.

[3] = system: pancreas cancer cell line HS766T; assay: In vitro cytotoxicity, MTS assay, pancreas cancer cells; assay type: cell-based, human; settings: Homo sapiens, 168 h, 7 days exposure, dose causing death to 50% of cells, read-out: Cell Survival ED 50 Pancreas
Procedure: as §1

[4] = Mouse formalin test pain model, late phase; assay type: in vivo
Procedure: The formalin test was conducted using standard procedures (Hunskaar et al., J. Neurosci. Meth. 14:69-76 (1985). Mice (male CF-1, 20-25 g) were placed in Plexiglass jars for at least 1 hr to accommodate to the environment
The animals received either test drug at 5-50 mg/kg p.o. or the appropriate volume of vehicle (normal saline). Thirty minutes after p.o. dosing mice were injected with formalin (20 μl of 2.5% formaldehyde solution in saline) into the dorsal surface of the right hind paw.
All experiments were done in a blinded manner. The late phase of the formalin response was measured as licking/biting from 10-50 minutes after formalin injection. Differences between groups were analyzed by one-way analysis of variance (ANOVA), A P value ≦0.05 was considered significant. Reduction in the time spent licking/biting in the late phase of the formalin response is considered an indication of a reduction in chronic pain.

For `Cc1ccc(N(c2ccc(C)cc2)N2CCC(C#N)(c3ccccc3)CC2)cc1` [Example 14, 4-Cyano-1-[(N,N′-di-p-tolyl)amino]-4-phenylpiperidine], the EC50 ([1]; Homo sapiens, Hs-578T, 168 h) was 4600 nM and the EC50 ([2]; Homo sapiens, DU-145, 168 h) was 10.8 µM.

In the case of `COc1cccc2c1C(=O)c1c(O)c3c(c(O)c1C2=O)C[C@@](O)(C(=O)CO)C[C@@H]3O[C@H]1C[C@H](N)[C@H](O)[C@H](C)O1` [Doxorubicin, doxorubicin, reference compound], the EC50 [3] is reported as 300 nM, the EC50 ([1]; Homo sapiens, Hs-578T, 168 h) is reported as 2000 nM and the EC50 ([2]; Homo sapiens, DU-145, 168 h) is reported as 7 µM.

In the case of `Cc1ccc(NC(=N)N(CCc2c[nH]c3ccccc23)c2ccc(C)cc2)cc1` [Example 9, 1-[(N,N′-di-p-tolyl)guanidinyl]-2-(3-indolyl)ethane], the EC50 [3] is reported as 500 nM, the EC50 ([1]; Homo sapiens, Hs-578T, 168 h) is reported as 4200 nM and the EC50 ([2]; Homo sapiens, DU-145, 168 h) is reported as 5.1 µM.

`Cc1ccc(NC(=N)N(CCCCN)c2ccc(C)cc2)cc1` [Example 4, 1-Amino-4-[(N,N′-di-p-tolyl)guanidinyl]butane] showed an EC50 [3] of 200 nM, an EC50 ([1]; Homo sapiens, Hs-578T, 168 h) of 1700 nM and an EC50 ([2]; Homo sapiens, DU-145, 168 h) of 2.5 µM.

For `Cc1ccc(NC(=NCCCOCCCCOCCCN=C(Nc2ccc(C)cc2)Nc2ccc(C)cc2)Nc2ccc(C)cc2)cc1` [Example 15], the EC50 [1] was 900 nM and the EC50 [2] was 2.5 µM.

Compound `Cc1ccc(N=C(Nc2ccc(C)cc2)N2CCOCCOCCN(C(=Nc3ccc(C)cc3)Nc3ccc(C)cc3)CCOCCOCC2)cc1` [Example 16, 7,16-Di-[(N,N′-Di-p-tolyl)amidino]-1,4,10,13-tetraoxa-7,16-diazacyclooctadecane] has an EC50 ([1]; Homo sapiens, Hs-578T, 168 h) of 600 nM and an EC50 ([2]; Homo sapiens, DU-145, 168 h) of 1 µM.

`CC[C@]1(O)C[C@@H]2CN(CCc3c([nH]c4ccccc34)[C@@](C(=O)OC)(c3cc4c(cc3OC)N(C)[C@H]3[C@@](O)(C(=O)OC)[C@H](OC(C)=O)[C@]5(CC)C=CCN6CC[C@]43[C@@H]65)C2)C1` [Vinblastine, vinblastine, reference compound] gave an EC50 [3] of 200 nM, an EC50 ([1]; Homo sapiens, Hs-578T, 168 h) of 1200 nM and an EC50 ([2]; Homo sapiens, DU-145, 168 h) of 4 µM.

With `C[C@]12CC[C@@H]3c4ccc(OC(=O)N(CCCl)CCCl)cc4CC[C@H]3[C@@H]1CC[C@@H]2O` [Estramustine, reference compound] the EC50 ([2]; Homo sapiens, DU-145, 168 h) was 11 µM.

Compound `COc1cc([C@@H]2c3cc4c(cc3[C@@H](O[C@@H]3O[C@@H]5CO[C@@H](C)O[C@H]5[C@H](O)[C@H]3O)[C@H]3COC(=O)[C@H]23)OCO4)cc(OC)c1O` [Etoposide, etoposide, reference compound] has an EC50 [3] of 2000 nM, an EC50 ([1]; Homo sapiens, Hs-578T, 168 h) of 400 nM and an EC50 ([2]; Homo sapiens, DU-145, 168 h) of 0.6 µM.

With `Cc1ccc(NC(=N)N(CCN(C(=N)Nc2ccc(C)cc2)c2ccc(C)cc2)c2ccc(C)cc2)cc1` [Example 21, 1,2-Di-[(N,N′-di-p-tolyl)guanidinyl]ethane] the “late phase pain versus control vehicle (post-hoc Newman-Kuels test)” value ([4]; 30 mg/kg orally) was “significant at P<0.05”, the “effect on general behavior of the animals” value ([4]; at the doses effective in the formalin test, p.o.) was “did not affect the general behavior” and the “time spent licking, late phase of formalin response (in words)” value ([4]; oral administration, 5-50 mg/kg, male CF-1 mice) was “dose-dependent reduction in the time spent licking”.

Compound `Cc1ccc(NC(=N)N(CCCCN(C(=N)Nc2ccc(C)cc2)c2ccc(C)cc2)c2ccc(C)cc2)cc1` [Example 5, 1,4-Di-[(N,N′-di-p-tolyl)guanidinyl]butane] has an EC50 ([1]; Homo sapiens, Hs-578T, 168 h) of 300 nM and an EC50 ([2]; Homo sapiens, DU-145, 168 h) of 0.7 µM.
